The numbers were not newly measured in paper PMC7886095 (Drug Design, Development and Therapy, 2021), which cites them from elsewhere.

Take `COc1cc(O)c2c(=O)cc(-c3ccc(O)cc3)oc2c1` [GKA, Genkwanin]: the aqueous solubility is less than 1 µg/mL.
